Consider 14 molecules from ChEMBL document CHEMBL2429777, “Synthesis and antibacterial activity evaluation of 2,6-bis(6-substituted-1,2,4-triazolo[3,4-b][1,3,4]thiadiazol-3-yl)pyridine derivatives” (2013).

In assay [1] the test system is Staphylococcus aureus. The experiment in a line: Antibacterial activity against Staphylococcus aureus by serial dilution method. Format: functional.
For assay [2], the system named is Pseudomonas aeruginosa. The experiment in a line: Antibacterial activity against Pseudomonas aeruginosa at 250 ug/tube after 24 hrs by cylinder-plate method. It counts as functional.
For assay [3], the system named is Escherichia coli. The experiment in a line: Antibacterial activity against Escherichia coli at 250 ug/tube after 24 hrs by cylinder-plate method. Format: functional.
The test system of assay [4] is Bacillus subtilis. Description: Antibacterial activity against Bacillus subtilis by serial dilution method. Format: functional.
For assay [5], the system named is Pseudomonas aeruginosa. The experiment in a line: Antibacterial activity against Pseudomonas aeruginosa by serial dilution method. It counts as functional.
The test system of assay [6] is Escherichia coli. The experiment in a line: Antibacterial activity against Escherichia coli by serial dilution method.
Assay [7] concerns Staphylococcus aureus. The experiment in a line: Antibacterial activity against Staphylococcus aureus at 250 ug/tube after 24 hrs by cylinder-plate method. Format: functional.
Assay [8] concerns Streptococcus pneumoniae. Description: Antibacterial activity against Streptococcus pneumoniae by serial dilution method. Format: functional.
The subject of assay [9] is Bacillus subtilis. Description: Antibacterial activity against Bacillus subtilis at 250 ug/tube after 24 hrs by cylinder-plate method. Format: functional.
In assay [10] the test system is Streptococcus pneumoniae. The experiment in a line: Antibacterial activity against Streptococcus pneumoniae at 250 ug/tube after 24 hrs by cylinder-plate method. It counts as functional.
The subject of assay [11] is Streptococcus pneumoniae. Description: Antibacterial activity against Streptococcus pneumoniae at 100 ug/tube after 24 hrs by cylinder-plate method. Format: functional.
The test system of assay [12] is Bacillus subtilis. The experiment in a line: Antibacterial activity against Bacillus subtilis at 100 ug/tube after 24 hrs by cylinder-plate method. It counts as functional.
Assay [13] concerns Staphylococcus aureus. Description: Antibacterial activity against Staphylococcus aureus at 100 ug/tube after 24 hrs by cylinder-plate method. Format: functional.
Assay [14] concerns Pseudomonas aeruginosa. Description: Antibacterial activity against Pseudomonas aeruginosa at 100 ug/tube after 24 hrs by cylinder-plate method. Format: functional.
The subject of assay [15] is Escherichia coli. The experiment in a line: Antibacterial activity against Escherichia coli at 100 ug/tube after 24 hrs by cylinder-plate method. It counts as functional.

≈ marks a conversion by molar mass, not a printed value.

Take `c1cc(-c2nnc3sc(-c4ccco4)nn23)nc(-c2nnc3sc(-c4ccco4)nn23)c1`: the minimal inhibitory concentration (MIC) worked out at 64 mg/L (≈ 139 µM) with Staphylococcus aureus [1]; 128 mg/L (≈ 279 µM) in the assay with Bacillus subtilis [4]; 32 mg/L (≈ 69.6 µM) against Pseudomonas aeruginosa [5]; 64 mg/L (≈ 139 µM) against Escherichia coli [6]; 128 mg/L (≈ 279 µM) against Streptococcus pneumoniae [8]. Besides, the “diameter of the inhibition zone (DIZ)” value in the assay with Pseudomonas aeruginosa [2] came out at 15 mm; in the assay with Escherichia coli [3] it was 15 mm; in the assay on Staphylococcus aureus [7], 14 mm; in the assay on Bacillus subtilis [9], 12 mm; in the assay with Streptococcus pneumoniae [10], 12 mm.

Take GENTAMICIN: the MIC in the assay on Staphylococcus aureus [1] was found to be 2 mg/L; against Bacillus subtilis [4], 2 mg/L; in the assay on Pseudomonas aeruginosa [5], 1 mg/L; in the assay with Streptococcus pneumoniae [8], 2 mg/L. Further, the inhibition zone (IZ) in the assay on Streptococcus pneumoniae [11] was 21 mm; in the assay on Bacillus subtilis [12], 22 mm.

For `COc1ccc(-c2nn3c(-c4cccc(-c5nnc6sc(-c7ccc(OC)cc7)nn56)n4)nnc3s2)cc1`, the MIC against Staphylococcus aureus [1] turned out to be 64 mg/L (≈ 119 µM); in the assay on Bacillus subtilis [4], 64 mg/L (≈ 119 µM); with Pseudomonas aeruginosa [5] it was 128 mg/L (≈ 237 µM); in the assay on Escherichia coli [6], 32 mg/L (≈ 59.3 µM); against Streptococcus pneumoniae [8] it was 64 mg/L (≈ 119 µM). Further, the “diameter of the inhibition zone (DIZ)” value in the assay on Pseudomonas aeruginosa [2] was found to be 12 mm; with Escherichia coli [3], 16 mm; in the assay on Staphylococcus aureus [7], 14 mm; in the assay on Bacillus subtilis [9], 14 mm; in the assay on Streptococcus pneumoniae [10] it was 14 mm.

As to `O=[N+]([O-])c1ccc(-c2nn3c(-c4cccc(-c5nnc6sc(-c7ccc([N+](=O)[O-])cc7)nn56)n4)nnc3s2)cc1`, the MIC with Staphylococcus aureus [1] was 128 mg/L (≈ 225 µM); against Bacillus subtilis [4] it was 128 mg/L (≈ 225 µM); against Pseudomonas aeruginosa [5], 128 mg/L (≈ 225 µM); against Escherichia coli [6] it was 64 mg/L (≈ 112 µM); against Streptococcus pneumoniae [8] it was 64 mg/L (≈ 112 µM). Besides, the “diameter of the inhibition zone (DIZ)” value came to 12 mm in the assay with Pseudomonas aeruginosa [2]; 15 mm in the assay on Escherichia coli [3]; 13 mm in the assay on Staphylococcus aureus [7]; 11 mm in the assay with Bacillus subtilis [9]; 15 mm in the assay on Streptococcus pneumoniae [10].

In the case of `Cc1ccc(-c2nn3c(-c4cccc(-c5nnc6sc(-c7ccc(C)cc7)nn56)n4)nnc3s2)cc1`, the MIC in the assay on Staphylococcus aureus [1] was 128 mg/L (≈ 252 µM); against Bacillus subtilis [4], greater than 128 mg/L; in the assay with Pseudomonas aeruginosa [5], greater than 128 mg/L; with Escherichia coli [6], 64 mg/L (≈ 126 µM); in the assay with Streptococcus pneumoniae [8], 128 mg/L (≈ 252 µM). For the same molecule, the “diameter of the inhibition zone (DIZ)” value with Pseudomonas aeruginosa [2] is given as 10 mm; in the assay on Escherichia coli [3] it was 14 mm; in the assay on Staphylococcus aureus [7], 13 mm; with Bacillus subtilis [9] it was 10 mm; with Streptococcus pneumoniae [10] it was 13 mm.

Take `Ic1cccc(-c2nn3c(-c4cccc(-c5nnc6sc(-c7cccc(I)c7)nn56)n4)nnc3s2)c1`: the MIC is 32 mg/L (≈ 43.8 µM) against Staphylococcus aureus [1]; 64 mg/L (≈ 87.5 µM) against Bacillus subtilis [4]; 64 mg/L (≈ 87.5 µM) in the assay on Pseudomonas aeruginosa [5]; 32 mg/L (≈ 43.8 µM) against Escherichia coli [6]; 64 mg/L (≈ 87.5 µM) against Streptococcus pneumoniae [8]. Further, the “diameter of the inhibition zone (DIZ)” value in the assay with Pseudomonas aeruginosa [2] came out at 15 mm; in the assay on Escherichia coli [3], 18 mm; with Staphylococcus aureus [7] it was 16 mm; in the assay with Bacillus subtilis [9] it was 14 mm; in the assay on Streptococcus pneumoniae [10], 14 mm.

For the molecule `c1cc(-c2nnc3sc(-c4ccncc4)nn23)nc(-c2nnc3sc(-c4ccncc4)nn23)c1`, the MIC against Staphylococcus aureus [1] is 128 mg/L (≈ 266 µM); against Bacillus subtilis [4] it was greater than 128 mg/L; against Pseudomonas aeruginosa [5], 128 mg/L (≈ 266 µM); in the assay with Escherichia coli [6] it was 64 mg/L (≈ 133 µM); against Streptococcus pneumoniae [8], 128 mg/L (≈ 266 µM). Moreover, the “diameter of the inhibition zone (DIZ)” value was 13 mm with Pseudomonas aeruginosa [2]; 14 mm with Escherichia coli [3]; 12 mm in the assay with Staphylococcus aureus [7]; 10 mm in the assay on Bacillus subtilis [9]; 13 mm in the assay on Streptococcus pneumoniae [10].

`Cc1nn2c(-c3cccc(-c4nnc5sc(C)nn45)n3)nnc2s1`: the MIC against Staphylococcus aureus [1] is 128 mg/L (≈ 360 µM); in the assay on Bacillus subtilis [4] it was greater than 128 mg/L; with Pseudomonas aeruginosa [5] it was 128 mg/L (≈ 360 µM); against Escherichia coli [6] it was 64 mg/L (≈ 180 µM); against Streptococcus pneumoniae [8], 128 mg/L (≈ 360 µM). Further, the “diameter of the inhibition zone (DIZ)” value in the assay with Pseudomonas aeruginosa [2] is given as 12 mm; in the assay on Escherichia coli [3] it was 14 mm; in the assay with Staphylococcus aureus [7], 12 mm; with Bacillus subtilis [9], 10 mm; in the assay with Streptococcus pneumoniae [10] it was 12 mm.

Take `c1ccc(-c2nn3c(-c4cccc(-c5nnc6sc(-c7ccccc7)nn56)n4)nnc3s2)cc1`: the MIC is 128 mg/L (≈ 267 µM) in the assay with Staphylococcus aureus [1]; greater than 128 mg/L against Bacillus subtilis [4]; greater than 128 mg/L against Pseudomonas aeruginosa [5]; 128 mg/L (≈ 267 µM) in the assay on Escherichia coli [6]; 128 mg/L (≈ 267 µM) against Streptococcus pneumoniae [8]. In addition, the “diameter of the inhibition zone (DIZ)” value with Pseudomonas aeruginosa [2] is reported as 10 mm; with Escherichia coli [3], 12 mm; in the assay with Staphylococcus aureus [7], 12 mm; in the assay with Bacillus subtilis [9], 10 mm; in the assay with Streptococcus pneumoniae [10] it was 12 mm.

On to `Clc1cccc(-c2nn3c(-c4cccc(-c5nnc6sc(-c7cccc(Cl)c7)nn56)n4)nnc3s2)c1`, for which the MIC in the assay on Staphylococcus aureus [1] came out at 64 mg/L (≈ 117 µM); with Bacillus subtilis [4], 64 mg/L (≈ 117 µM); in the assay with Pseudomonas aeruginosa [5], 64 mg/L (≈ 117 µM); against Escherichia coli [6] it was 64 mg/L (≈ 117 µM); in the assay with Streptococcus pneumoniae [8], 32 mg/L (≈ 58.3 µM). Moreover, the “diameter of the inhibition zone (DIZ)” value worked out at 14 mm in the assay with Pseudomonas aeruginosa [2]; 15 mm in the assay with Escherichia coli [3]; 14 mm with Staphylococcus aureus [7]; 13 mm in the assay with Bacillus subtilis [9]; 16 mm with Streptococcus pneumoniae [10].

Consider `CC1(C)S[C@@H]2[C@H](NC(=O)[C@H](N)c3ccccc3)C(=O)N2[C@H]1C(=O)[O-].[Na+]` [AMPICILLIN SODIUM], for which the MIC against Staphylococcus aureus [1] was found to be 1 mg/L; in the assay on Bacillus subtilis [4], 0.5 mg/L; against Pseudomonas aeruginosa [5], 2 mg/L; with Streptococcus pneumoniae [8] it was 2 mg/L. Also, the “diameter of the inhibition zone (DIZ)” value in the assay with Streptococcus pneumoniae [11] stood at 18 mm; in the assay on Staphylococcus aureus [13], 23 mm; with Bacillus subtilis [12] it was 21 mm; with Pseudomonas aeruginosa [14] it was 17 mm; in the assay with Escherichia coli [15], 17 mm.

For `O=[N+]([O-])c1cccc(-c2nn3c(-c4cccc(-c5nnc6sc(-c7cccc([N+](=O)[O-])c7)nn56)n4)nnc3s2)c1`, the MIC against Staphylococcus aureus [1] was 128 mg/L (≈ 225 µM); with Bacillus subtilis [4] it was 128 mg/L (≈ 225 µM); in the assay with Pseudomonas aeruginosa [5], 128 mg/L (≈ 225 µM); against Escherichia coli [6] it was 64 mg/L (≈ 112 µM); against Streptococcus pneumoniae [8], 64 mg/L (≈ 112 µM). For the same molecule, the “diameter of the inhibition zone (DIZ)” value worked out at 12 mm in the assay on Pseudomonas aeruginosa [2]; 14 mm in the assay on Escherichia coli [3]; 13 mm in the assay on Staphylococcus aureus [7]; 11 mm in the assay on Bacillus subtilis [9]; 14 mm in the assay with Streptococcus pneumoniae [10].

`c1cncc(-c2nn3c(-c4cccc(-c5nnc6sc(-c7cccnc7)nn56)n4)nnc3s2)c1`: the MIC against Staphylococcus aureus [1] is 128 mg/L (≈ 266 µM); with Bacillus subtilis [4] it was 128 mg/L (≈ 266 µM); in the assay with Pseudomonas aeruginosa [5] it was 128 mg/L (≈ 266 µM); against Escherichia coli [6] it was 64 mg/L (≈ 133 µM); in the assay with Streptococcus pneumoniae [8], 128 mg/L (≈ 266 µM). For the same molecule, the “diameter of the inhibition zone (DIZ)” value in the assay with Pseudomonas aeruginosa [2] was found to be 13 mm; in the assay with Escherichia coli [3], 14 mm; with Staphylococcus aureus [7], 12 mm; in the assay with Bacillus subtilis [9], 11 mm; in the assay on Streptococcus pneumoniae [10], 13 mm.

As to `Clc1ccc(-c2nn3c(-c4cccc(-c5nnc6sc(-c7ccc(Cl)cc7)nn56)n4)nnc3s2)cc1`, the MIC against Staphylococcus aureus [1] worked out at 32 mg/L (≈ 58.3 µM); against Bacillus subtilis [4], 64 mg/L (≈ 117 µM); against Pseudomonas aeruginosa [5], 32 mg/L (≈ 58.3 µM); against Escherichia coli [6], 32 mg/L (≈ 58.3 µM); against Streptococcus pneumoniae [8], 32 mg/L (≈ 58.3 µM). For the same molecule, the “diameter of the inhibition zone (DIZ)” value is listed as 15 mm in the assay with Pseudomonas aeruginosa [2]; 17 mm in the assay with Escherichia coli [3]; 15 mm with Staphylococcus aureus [7]; 14 mm in the assay on Bacillus subtilis [9]; 16 mm in the assay with Streptococcus pneumoniae [10].
